Publication PMC11291853, “Haemodynamic, hormonal and renal actions of osteocrin in normal sheep” (Experimental Physiology, 2024)
Where no end group is shown, it is not given here.

Key:
[1] = test system: normal conscious sheep; assay: Haemodynamic and haematocrit responses to stepped OSTN infusion; type: in vivo; details: for Fall in mean arterial pressure (MAP) compared with time-matched vehicle control: sheep n = 8
Method: Eight Coopworth ewes (4–6 years; 42–60 kg; Lincoln University Farm, New Zealand) were instrumented under general anaesthesia (induced by 0.5 mg/kg diazepam I.V. and 4 mg/kg ketamine I.V. and maintained with a mixture of isoflurane and oxygen) and using approved peri‐ and postoperative antibiotics (20 mg/kg cephazolin I.V.; 6.6–20 mg/kg oxytetracycline I.V.) and analgesia (4 mg/kg carprofen I.V.). Sheep were instrumented via a 50‐mm‐long neck incision, allowing cannulation of the left carotid artery (16 gauge Angiocath; Becton Dickinson, Sandy, UT, USA) for direct measurement of mean arterial pressure (MAP) and heart rate (HR). A polyethylene catheter was placed in the left jugular vein for blood sampling and recording of central venous pressure (CVP). A Swan–Ganz thermodilution catheter (Edwards Life Sciences, Irvine, CA, USA) was placed in the pulmonary artery via the jugular vein for the measurement of cardiac output (CO). The urinary bladder was catheterized per urethra for timed urine collections (Charles, Espiner, Nicholls et al., [1996]). Animals recovered for ≥5 days before commencing the study protocol.
(§1) Sheep received I.V. infusions of increasing doses of ovine proOSTN (83–133), the putative 51 aa circulating peptide (at 2.5, 25 and 250 pmol/kg/min for 1 h each; Mimotopes, Melbourne, Victoria, Australia) and a vehicle control (0.9% saline) administered on separate days, ≥1 day apart, in a balanced random order.
Haemodynamic measurements [HR, MAP, CVP and CO, and calculated total peripheral resistance (CTPR = MAP/CO)] were recorded at 30 min intervals in the hour preceding the first dose (baseline) and at 15, 30, 45 and 60 min during each infusion. […] Measurements were determined by online computer‐assisted analysis (PowerLab Systems; ADInstruments, Dunedin, New Zealand) and made with the animals standing quietly in their metabolic crates (Charles, Espiner, Nicholls et al., [1996]).
(§2) Venous blood samples were obtained at 30 min and immediately preceding commencement of the first infusion (baseline) and at 30 min intervals for the duration of the study day. Samples were taken into tubes on ice, centrifuged at 4°C and stored at −20°C before assaying. Following extraction over C18 SepPac cartridges (Waters Corp., Milford, MA, USA), plasma concentrations of cGMP (Charles et al., [1990]), ANP (Charles et al., [1990]), BNP (Pemberton et al., [1997]), CNP (Charles et al., [1995]) and N‐terminal proCNP (NTproCNP) (Wilson et al., [2015]), were measured by radioimmunoassay (RIA) as previously described. Non‐extracted plasma renin activity (PRA) (Dunn & Espiner, [1976]) and aldosterone (Lun et al., [1983]) were measured as previously described. Cyclic AMP was measured by enzyme‐linked immunosorbent assay (catalogue no. ADI‐900‐163; Enzo Life Sciences, Farmingdale, NY, USA). For each analyte, all samples from individual animals were measured in the same assay to avoid interassay variability. Haematocrit concentrations were measured with every blood sample taken.

[2] = Plasma OSTN concentration, metabolic clearance rate and half-life during and after stepped I.V. infusion (OSTN RIA); type: in vivo, sheep; details: mean ± SD; for level at time molar at 1 h: sheep, sheep n = 8, RIA
Method: as §1, §2
Osteocrin concentrations in the infusate were measured to calculate the infusion rate and metabolic clearance rate (MCR) of the peptide (MCR = infusion rate/plateau − baseline level).
Human proOSTN (83–112) […] was iodinated using 0.5 mCi Na^125I in the presence of […] chloramine‐T in […] phosphate buffer, pH 7.5, for 20 s, followed by the addition of 50 mg cysteine, 25 mg BSA and 20 mg KI in […] buffer. The resulting mixture was loaded onto a 10 cm RP300 Brownlee column and eluted with a gradient from 0% to 60% acetonitrile in 49 mmol/L KH2PO4 buffer, pH 2.9, over 30 min at 1 mL/min, collecting 0.5 mL fractions. The fraction containing the major peak of radioactive [^125I]‐proOSTN (83–112) was used in the RIA. Peptide standards were made from synthetic human proOSTN (83–133) taking into account the purity data supplied. All standards, sample extracts, antisera and tracer solutions were made up in pH 7.4 assay buffer (0.1% BSA in 0.1 M phosphate buffer). Fifty microlitres of sample extract or 1−1000 pmol/L of human proOSTN (83–133) standard (all in duplicate) were incubated with 50 μL antiserum H‐028‐68 (Phoenix Pharmaceuticals) at a dilution of 1:20,000 for 24 h at 4°C, followed by addition of 50 μL of tracer solution [^125I]‐proOSTN (83–112) containing 3000 cpm for an additional 24 h at 4°C. Bound and free [^125I]‐proOSTN (83–112) were separated by a solid‐phase second antibody method (Sac‐Cell, Donkey‐Anti Rabbit; IDS, UK), and the radioactivity in the bound [^125I]‐proOSTN (83–112) pellet was measured in a PerkinElmer Wizard2 10‐Detector Gamma Counter. Ovine concentrations of OSTN were extrapolated from the human standards, taking into account ovine proOSTN (83–133) cross‐reactivity. Ovine proOSTN (83–112) cross‐reactivity in the ANP, BNP and CNP RIA was <0.005%.

[3] = test system: normal conscious sheep; assay: Plasma sodium, potassium and creatinine during stepped OSTN infusion; type: in vivo; details: sheep n = 8, mean ± SD
Method: as §1
Blood samples for analysis of plasma sodium, potassium and creatinine concentrations were taken immediately before the first dose (baseline), then hourly throughout the study. Urine volume and samples for the measurement of urine cGMP, urine cAMP, sodium, potassium and creatinine excretion were collected hourly throughout the study protocol. To estimate the contribution of renal tissues to urine cGMP/cAMP excretion, nephrogenous cGMP/cAMP was calculated using the formula [urine cG(A)MP − (glomerular filtration rate × plasma cG(A)MP/urine volume × min] (Hirata et al., [1990]).

[4] = 1 h, end of OSTN 2.5 pmol/kg/min I.V.
[5] = 2 h, end of OSTN 25 pmol/kg/min I.V.
[6] = 3 h, end of OSTN 250 pmol/kg/min I.V.
[7] = 4 h, 1 h after end of infusions
[8] = 5 h, 2 h after end of infusions

For “SFSGFGSPLDRLSAGSVSHKGKQRKVVDHPKRRFGIPMDRIGRNRLSNSRG [OSTN]”, the “Fall in mean arterial pressure (MAP) compared with time-matched vehicle control” value ([1]; end of 2.5 pmol/kg/min infusion period) was roughly 2 mmHg, the “Fall in mean arterial pressure (MAP) compared with time-matched vehicle control” value ([1]; end of 25 pmol/kg/min infusion period) was roughly 7 mmHg and the “Fall in mean arterial pressure (MAP) compared with time-matched vehicle control” value ([1]; end of 250 pmol/kg/min infusion period) was roughly 12 mmHg. The “Heart rate (HR)” value ([1]; stepped OSTN infusions vs vehicle, P = 0.140) was “did not significantly alter”, the “Calculated total peripheral resistance (CTPR)” value ([1]; stepped OSTN infusions vs vehicle, P = 0.356) was “did not significantly alter” and the Haematocrit ([1]; stepped OSTN infusions vs vehicle, P = 0.360) was “did not significantly alter”. For the same sequence, the “Cardiac output (CO)” value ([1]; stepped OSTN infusions vs vehicle, P = 0.546) was “did not significantly alter”, the “Central venous pressure (CVP)” value ([1]; vs vehicle, P = 0.003, significant reductions at 25 and 250 pmol/kg/min) was “reduced” and the half-life ([2]; Coopworth, plasma, iv, normal sheep, after end of 250 pmol/kg/min infusion, samples at 1-15 min, read-out: Osteocrin plasma half-life) was 5.7 ± 1.8 min. For the same sequence, the level at time molar at 1 h ([2]; Coopworth, plasma, iv, 2.5 pmol/kg/min, end of 60 min I.V. infusion at 2.5 pmol/kg/min) was 0.0287 ± 0.008 nM, the level at time molar at 1 h ([2]; Coopworth, plasma, iv, 25 pmol/kg/min, end of 60 min I.V. infusion at 25 pmol/kg/min) was 0.48 ± 0.195 nM and the level at time molar at 1 h ([2]; Coopworth, plasma, iv, 250 pmol/kg/min, end of 60 min I.V. infusion at 250 pmol/kg/min) was 6.09 ± 0.75 nM. The Osteocrin plasma half-life ([2]; normal sheep, after end of 250 pmol/kg/min infusion, samples at 1-15 min) was roughly 6 min, the Plasma creatinine [3, 4] was 76.6 ± 7.5 µmol/L and the Plasma potassium [3, 4] was 3.8 ± 0.3 mmol/L. It also gave a Plasma sodium [3, 4] of 147.0 ± 2.6 mmol/L, a Plasma creatinine [3, 5] of 75.6 ± 6.9 µmol/L and a Plasma potassium [3, 5] of 4.0 ± 0.5 mmol/L. It also gave a Plasma sodium [3, 5] of 147.0 ± 2.5 mmol/L, a Plasma creatinine [3, 6] of 76.4 ± 8.5 µmol/L and a Plasma potassium [3, 6] of 4.0 ± 0.5 mmol/L. It also gave a Plasma sodium [3, 6] of 146.9 ± 2.4 mmol/L, a Plasma creatinine [3, 7] of 75.6 ± 8.9 µmol/L and a Plasma potassium [3, 7] of 4.1 ± 0.6 mmol/L. For the same sequence, the Plasma sodium [3, 7] was 147.1 ± 2.2 mmol/L, the Plasma creatinine [3, 8] was 74.6 ± 8.5 µmol/L and the Plasma potassium [3, 8] was 4.3 ± 0.6 mmol/L. For the same sequence, the Plasma sodium [3, 8] was 146.5 ± 2.1 mmol/L.
